# According to patent US9067977B2, “Peptides derivatized with A-B-C-D- and their therapeutical use” (Novo Nordisk A/S, priority 2007, dated 2015):
# Starred links: 1 amine or outer side, 2 acyl side, 3 side chain; linkers in the order of their positions; H or OH if unused. Residues, ends and D or L forms follow the SMILES beside them. Groups on a side chain read outwards from the residue. *: point of attachment. X1 = O=C(CCCCCCCCCCCCCCCc1nnn[nH]1)NS(=O)(=O)CCCC(=O)*; C20 diacid = O=C(O)CCCCCCCCCCCCCCCCCCC(=O)*; γGlu = O=C(O)[C@H](CCC(=O)[*:2])N[*:1]; Desaminohistidyl = O=C(CCc1c[nH]cn1)*; 12Ado = NCCCCCCCCCCCC(=O)O; AEEA = NCCOCCOCC(=O)O; Inp = O=C(O)C1CCNCC1
# Molecular target: human serum albumin (HSA) (Homo sapiens, UniProt P02768)
# Test: Albumin binding affinity, competition scintillation proximity assay
# Description: Streptavidin-SPA beads (GE Healthcare RPNQ0009) were incubated with biotinylated HSA for 5 hours. The beads were washed with buffer to remove unbound HSA. […] After 20 hours of gentle rocking at room temperature the plates were centrifuged and counted on a TopCounter.
# human serum albumin (HSA), sequence (P02768 25-609): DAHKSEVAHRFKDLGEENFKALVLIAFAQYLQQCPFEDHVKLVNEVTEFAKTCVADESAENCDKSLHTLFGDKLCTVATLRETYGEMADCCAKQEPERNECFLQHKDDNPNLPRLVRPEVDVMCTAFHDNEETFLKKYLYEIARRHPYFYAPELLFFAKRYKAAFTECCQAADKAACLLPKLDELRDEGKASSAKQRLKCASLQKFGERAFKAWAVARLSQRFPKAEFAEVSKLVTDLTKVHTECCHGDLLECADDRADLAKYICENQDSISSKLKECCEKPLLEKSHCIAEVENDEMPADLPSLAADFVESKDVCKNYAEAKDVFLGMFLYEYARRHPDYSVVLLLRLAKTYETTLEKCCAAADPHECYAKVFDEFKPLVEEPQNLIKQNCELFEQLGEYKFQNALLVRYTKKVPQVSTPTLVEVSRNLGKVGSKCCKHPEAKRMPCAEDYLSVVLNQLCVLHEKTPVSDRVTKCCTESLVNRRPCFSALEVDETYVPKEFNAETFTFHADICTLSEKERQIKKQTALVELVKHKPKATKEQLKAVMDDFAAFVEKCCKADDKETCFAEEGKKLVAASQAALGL
row,EC50 [µM],Structure (SMILES)
1,0.001 to 0.1,"CC[C@H](C)[C@H](NC(=O)[C@H](Cc1ccccc1)NC(=O)[C@H](CCC(=O)O)NC(=O)[C@H](CCCNC(=N)N)NC(=O)[C@H](C)NC(=O)[C@H](C)NC(=O)[C@H](CCC(N)=O)NC(=O)[C@H](CCC(=O)O)NC(=O)[C@H](CCC(=O)O)NC(=O)[C@H](CC(C)C)NC(=O)[C@H](Cc1ccc(O)cc1)NC(=O)[C@H](CO)NC(=O)[C@H](CO)NC(=O)[C@@H](NC(=O)[C@H](CC(=O)O)NC(=O)[C@H](CO)NC(=O)[C@@H](NC(=O)[C@H](Cc1ccccc1)NC(=O)[C@@H](NC(=O)CNC(=O)[C@H](CCC(=O)O)NC(=O)[C@H](C)NC(=O)CCc1c[nH]cn1)[C@@H](C)O)[C@@H](C)O)C(C)C)C(=O)N[C@@H](C)C(=O)N[C@@H](Cc1c[nH]c2ccccc12)C(=O)N[C@@H](CC(C)C)C(=O)N[C@H](C(=O)N[C@@H](CCCNC(=N)N)C(=O)NCC(=O)N[C@@H](CCCNC(=N)N)C(=O)NCC(=O)N[C@@H](CCCCNC(=O)COCCOCCNC(=O)CC[C@H](NC(=O)CC[C@H](NC(=O)CCCCCCCCCCCNC(=O)CCCS(=O)(=O)NC(=O)CCCCCCCCCCCCCCCc1nnn[nH]1)C(=O)O)C(=O)O)C(N)=O)C(C)C [Example 67, [ImPr^7,Arg^26,34,Glu^22]GLP-1-(7-37)Lys[2-(2-[2-((S)-4-((S)-4-(12-[4-(16-1H-tetrazol-5-ylhexadecanoylsulfamoyl)butyrylamino]dodecanoylamino)-4-carboxybutyrylamino)-4-carboxybutyrylamino)ethoxy]ethoxy)acetyl]-amid] (Desaminohistidyl-AEGTFTSDVSSYLEEQAAREFIAWLVRGRGK([AEEA-γGlu-γGlu-12Ado-X1])-NH2)"
2,0.3 to 0.8,"CC[C@H](C)[C@H](NC(=O)[C@H](Cc1ccccc1)NC(=O)[C@H](CCC(=O)O)NC(=O)[C@H](CCCNC(=N)N)NC(=O)[C@H](C)NC(=O)[C@H](C)NC(=O)[C@H](CCC(N)=O)NC(=O)[C@H](CCC(=O)O)NC(=O)[C@H](CCC(=O)O)NC(=O)[C@H](CC(C)C)NC(=O)[C@H](Cc1ccc(O)cc1)NC(=O)[C@H](CO)NC(=O)[C@H](CO)NC(=O)[C@@H](NC(=O)[C@H](CC(=O)O)NC(=O)[C@H](CO)NC(=O)[C@@H](NC(=O)[C@H](Cc1ccccc1)NC(=O)[C@@H](NC(=O)CNC(=O)[C@H](CCC(=O)O)NC(=O)[C@H](C)NC(=O)CCc1c[nH]cn1)[C@@H](C)O)[C@@H](C)O)C(C)C)C(=O)N[C@@H](C)C(=O)N[C@@H](Cc1c[nH]c2ccccc12)C(=O)N[C@@H](CC(C)C)C(=O)N[C@H](C(=O)N[C@@H](CCCNC(=N)N)C(=O)NCC(=O)N[C@@H](CCCNC(=N)N)C(=O)NCC(=O)N[C@@H](CCCCNC(=O)COCCOCCNC(=O)COCCOCCNC(=O)CC[C@H](NC(=O)C1CCN(C(=O)CCCCCCCCCCCCCCCCCCC(=O)O)CC1)C(=O)O)C(N)=O)C(C)C [Example 14, [DesaminoHis7,Glu22,Arg26,Arg34]GLP-1-(7-37)Lys[2-(2-[2-(2-[2-(2-((S)-4-[1-[19-Carboxynonadecanoyl]piperidine-4-carbonylamino]-4-carboxybutyrylamino)ethoxy)ethoxy]acetylamino)ethoxy]ethoxy)acetyl]amide] (Desaminohistidyl-AEGTFTSDVSSYLEEQAAREFIAWLVRGRGK([AEEA-AEEA-γGlu-Inp-C20 diacid])-NH2)"
